Drawing on patent US8846933B2, “N-link hydroxamic acid derivatives useful as antibacterial agents” (Pfizer Inc., priority 2009, dated 2014), this text covers EC-1 (MIC) and PA-7 (MIC) for 29 compounds.

The test system of assay [1] is Escherichia coli EC-1: VOGEL, mouse virulent. Briefly: MIC determination (CLSI), strain EC-1. Type of assay: cell-based. The following applies: strain EC-1, unit assumed. An outline of the steps: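 The mouse-virulent VOGEL isolate of E. coli, EC-1, served as test organism. Minimum inhibitory concentration was measured by CLSI dilution methodology (M7-A7; M100-S18 standards).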

Assay [2] relates to Pseudomonas aeruginosa UI-18: Wild-type (PA-7). In words: MIC determination (CLSI), strain PA-7. Type of assay: cell-based. The settings on record: strain PA-7, unit assumed. An outline of the steps: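 Strain tested was P. aeruginosa UI-18, a wild-type isolate labelled PA-7. Minimum inhibitory concentrations followed CLSI dilution methodology for aerobically growing bacteria (M7-A7, M100-S18).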

Setting [3] is: generated in the same manner as in Table 4.

As for `CC(CCn1ccc(-c2ccc3cc[nH]c3c2)cc1=O)(C(=O)NO)S(C)(=O)=O` (stereo not shown) [Example 176, N-hydroxy-4-[4-(1H-indol-6-yl)-2-oxopyridin-1(2H)-yl]-2-methyl-2-(methylsulfonyl)butanamide], in assay [1] (setting [3]), the EC-1 (MIC) is 8 µg/mL. In assay [2] (setting [3]), this compound displayed a PA-7 (MIC) of 4 µg/mL.

On to `CCNC(=O)c1ccc(-c2ccn(CCC(C)(C(=O)NO)S(C)(=O)=O)c(=O)c2)cc1F` (stereo not shown) [Example 177, N-ethyl-2-fluoro-4-{1-[4-(hydroxyamino)-3-methyl-3-(methylsulfonyl)-4-oxobutyl]-2-oxo-1,2-dihydropyridin-4-yl}benzamide], for which the EC-1 (MIC) in assay [1] (setting [3]) is > 64 µg/mL. In assay [2] (setting [3]), this compound yielded a PA-7 (MIC) of 64 µg/mL.

In assay [1] (setting [3]), `Cc1cccc(-c2ccn(CCC(C)(C(=O)NO)S(C)(=O)=O)c(=O)c2)c1` (stereo not shown) [Example 178, N-hydroxy-2-methyl-4-[4-(3-methylphenyl)-2-oxopyridin-1(2H)-yl]-2-(methylsulfonyl)butanamide] yielded an EC-1 (MIC) of 4 µg/mL. In assay [2] (setting [3]), this compound yielded a PA-7 (MIC) of 2 µg/mL.

Take `CN1Cc2cc(-c3ccn(CCC(C)(C(=O)NO)S(C)(=O)=O)c(=O)c3)ccc2C1=O` (stereo not shown) [Example 179, N-hydroxy-2-methyl-4-[4-(2-methyl-1-oxo-2,3-dihydro-1H-isoindol-5-yl)-2-oxopyridin-1(2H)-yl]-2-(methylsulfonyl)butanamide]: in assay [1] (setting [3]), the EC-1 (MIC) is > 64 µg/mL. The PA-7 (MIC) in assay [2] (setting [3]) was > 64 µg/mL.

`COc1ccc(-c2ccn(CCC(C)(C(=O)NO)S(C)(=O)=O)c(=O)c2)cc1F` (stereo not shown) [Example 180, 4-[4-(3-fluoro-4-methoxyphenyl)-2-oxopyridin-1(2H)-yl]-N-hydroxy-2-methyl-2-(methylsulfonyl)butanamide] displayed an EC-1 (MIC) in assay [1] (setting [3]) of 2 µg/mL. The PA-7 (MIC) in assay [2] (setting [3]) came out at 8 µg/mL.

As for `CC(CCn1ccc(-c2ccc(OCC3CCCCC3)nc2)cc1=O)(C(=O)NO)S(C)(=O)=O` (stereo not shown) [Example 181, 4-[6-(cyclohexylmethoxy)-2′-oxo-3,4′-bipyridin-1′(2′H)-yl]-N-hydroxy-2-methyl-2-(methylsulfonyl)butanamide], the EC-1 (MIC) in assay [1] (setting [3]) came to 0.125 µg/mL. In assay [2] (setting [3]), this compound gave a PA-7 (MIC) of 4 µg/mL.

For `COc1ncccc1-c1ccn(CCC(C)(C(=O)NO)S(C)(=O)=O)c(=O)c1` (stereo not shown) [Example 182, N-hydroxy-4-(2-methoxy-2′-oxo-3,4′-bipyridin-1′(2′H)-yl)-2-methyl-2-(methylsulfonyl)butanamide], in assay [1] (setting [3]), the EC-1 (MIC) is > 64 µg/mL. This compound registered a PA-7 (MIC) in assay [2] (setting [3]) of 64 µg/mL.

`CC(CCn1ccc(-c2ccccc2C(F)(F)F)cc1=O)(C(=O)NO)S(C)(=O)=O` (stereo not shown) [Example 183, N-hydroxy-2-methyl-2-(methylsulfonyl)-4-{2-oxo-4-[2-(trifluoromethyl)phenyl]pyridin-1(2H)-yl}butanamide] displayed an EC-1 (MIC) in assay [1] (setting [3]) of 32 µg/mL. The compound further returned a PA-7 (MIC) in assay [2] (setting [3]) of 32 µg/mL.

In assay [1], `CCOc1ccc(-c2ccn(CCC(C)(C(=O)NO)S(C)(=O)=O)c(=O)c2)cc1F` (stereo not shown) [Example 184, 4-[4-(4-ethoxy-3-fluorophenyl)-2-oxopyridin-1(2H)-yl]-N-hydroxy-2-methyl-2-(methylsulfonyl)butanamide] gave an EC-1 (MIC) of 0.5 µg/mL. Besides, the PA-7 (MIC) in assay [2] was found to be 2 µg/mL.

`CCOc1ccc(-c2ccn(CCC(C)(C(=O)NO)S(C)(=O)=O)c(=O)c2)cn1` (stereo not shown) [Example 185, 4-(6-ethoxy-2′-oxo-3,4′-bipyridin-1′(2′H)-yl)-N-hydroxy-2-methyl-2-(methylsulfonyl)butanamide] yielded an EC-1 (MIC) in assay [1] of 2 µg/mL. In assay [2], this compound gave a PA-7 (MIC) of 4 µg/mL.

Consider `CC(CCn1ccc(-c2ccc(F)cc2F)cc1=O)(C(=O)NO)S(C)(=O)=O` (stereo not shown) [Example 186, 4-[4-(2,4-difluorophenyl)-2-oxopyridin-1(2H)-yl]-N-hydroxy-2-methyl-2-(methylsulfonyl)butanamide], for which the EC-1 (MIC) in assay [1] turned out to be 2 µg/mL. This compound also returned a PA-7 (MIC) in assay [2] of 2 µg/mL.

In the case of `CC(CCn1ccc(-c2cccc(F)c2)cc1=O)(C(=O)NO)S(C)(=O)=O` (stereo not shown) [Example 187, 4-[4-(3-fluorophenyl)-2-oxopyridin-1(2H)-yl]-N-hydroxy-2-methyl-2-(methylsulfonyl)butanamide], the EC-1 (MIC) in assay [1] was 8 µg/mL. This compound also came in with a PA-7 (MIC) in assay [2] of 2 µg/mL.

Consider `CNC(=O)c1ccc(-c2ccn(CCC(C)(C(=O)NO)S(C)(=O)=O)c(=O)c2)cc1` (stereo not shown) [Example 188, 4-{1-[4-(hydroxyamino)-3-methyl-3-(methylsulfonyl)-4-oxobutyl]-2-oxo-1,2-dihydropyridin-4-yl}-N-methylbenzamide], for which, in assay [1], the EC-1 (MIC) is > 64 µg/mL. For the same compound, the PA-7 (MIC) in assay [2] was > 64 µg/mL.

As for `CC(CCn1ccc(-c2cccc3cccnc23)cc1=O)(C(=O)NO)S(C)(=O)=O` (stereo not shown) [Example 189, N-hydroxy-2-methyl-2-(methylsulfonyl)-4-(2-oxo-4-quinolin-8-ylpyridin-1(2H)-yl)butanamide], in assay [1], the EC-1 (MIC) was > 64 µg/mL. This compound gave a PA-7 (MIC) in assay [2] of 64 µg/mL.

The compound `Cc1ccc(-c2ccn(CCC(C)(C(=O)NO)S(C)(=O)=O)c(=O)c2)cc1` (stereo not shown) [Example 190, N-hydroxy-2-methyl-4-[4-(4-methylphenyl)-2-oxopyridin-1(2H)-yl]-2-(methylsulfonyl)butanamide] showed an EC-1 (MIC) in assay [1] of 1 µg/mL. In assay [2], this compound displayed a PA-7 (MIC) of 1 µg/mL.

On to `COCc1ccccc1-c1ccn(CCC(C)(C(=O)NO)S(C)(=O)=O)c(=O)c1` (stereo not shown) [Example 191, N-hydroxy-4-{4-[2-(methoxymethyl)phenyl]-2-oxopyridin-1(2H)-yl}-2-methyl-2-(methylsulfonyl)butanamide], for which the EC-1 (MIC) in assay [1] is > 64 µg/mL. Besides, in assay [2], the PA-7 (MIC) was > 64 µg/mL.

In turn, `CC(CCn1ccc(-c2ccc(F)cc2)cc1=O)(C(=O)NO)S(C)(=O)=O` (stereo not shown) [Example 192, 4-[4-(4-fluorophenyl)-2-oxopyridin-1(2H)-yl]-N-hydroxy-2-methyl-2-(methylsulfonyl)butanamide] displayed an EC-1 (MIC) in assay [1] of 8 µg/mL. The PA-7 (MIC) in assay [2] is 2 µg/mL.

The compound `Cc1cc(-c2ccn(CCC(C)(C(=O)NO)S(C)(=O)=O)c(=O)c2)ccc1F` (stereo not shown) [Example 193, 4-[4-(4-fluoro-3-methylphenyl)-2-oxopyridin-1(2H)-yl]-N-hydroxy-2-methyl-2-(methylsulfonyl)butanamide] yielded an EC-1 (MIC) in assay [1] of 2 µg/mL. Besides, the PA-7 (MIC) in assay [2] is 2 µg/mL.

In the case of `Cn1c(C#N)ccc1-c1ccn(CCC(C)(C(=O)NO)S(C)(=O)=O)c(=O)c1` (stereo not shown) [Example 194, 4-[4-(5-cyano-1-methyl-1H-pyrrol-2-yl)-2-oxopyridin-1(2H)-yl]-N-hydroxy-2-methyl-2-(methylsulfonyl)butanamide], the EC-1 (MIC) in assay [1] is > 64 µg/mL. Further, the PA-7 (MIC) in assay [2] is > 64 µg/mL.

As to `COc1ccc(OC)c(-c2ccn(CCC(C)(C(=O)NO)S(C)(=O)=O)c(=O)c2)c1` (stereo not shown) [Example 195, 4-[4-(2,5-dimethoxyphenyl)-2-oxopyridin-1(2H)-yl]-N-hydroxy-2-methyl-2-(methylsulfonyl)butanamide], the EC-1 (MIC) in assay [1] was > 64 µg/mL. For the same compound, the PA-7 (MIC) in assay [2] is > 64 µg/mL.

Compound `CC(CCn1ccc(-c2cc(F)ccc2F)cc1=O)(C(=O)NO)S(C)(=O)=O` (stereo not shown) [Example 196, 4-[4-(2,5-difluorophenyl)-2-oxopyridin-1(2H)-yl]-N-hydroxy-2-methyl-2-(methylsulfonyl)butanamide] showed an EC-1 (MIC) in assay [1] of 8 µg/mL. This compound also yielded a PA-7 (MIC) in assay [2] of 4 µg/mL.

The compound `CC(CCn1ccc(-c2ccc(-c3ccccc3)c(F)c2)cc1=O)(C(=O)NO)S(C)(=O)=O` (stereo not shown) [Example 197, 4-[4-(2-fluorobiphenyl-4-yl)-2-oxopyridin-1(2H)-yl]-N-hydroxy-2-methyl-2-(methylsulfonyl)butanamide] gave an EC-1 (MIC) in assay [1] of 0.25 µg/mL. The compound also registered a PA-7 (MIC) in assay [2] of 2 µg/mL.

The compound `CC(CCn1ccc(-c2ccc(C#N)cc2)cc1=O)(C(=O)NO)S(C)(=O)=O` (stereo not shown) [Example 198, 4-[4-(4-cyanophenyl)-2-oxopyridin-1(2H)-yl]-N-hydroxy-2-methyl-2-(methylsulfonyl)butanamide] came in with an EC-1 (MIC) in assay [1] of 16 µg/mL. The same compound yielded a PA-7 (MIC) in assay [2] of 8 µg/mL.

As for `CCCCc1ccc(-c2ccn(CCC(C)(C(=O)NO)S(C)(=O)=O)c(=O)c2)cc1` (stereo not shown) [Example 199, 4-[4-(4-butylphenyl)-2-oxopyridin-1(2H)-yl]-N-hydroxy-2-methyl-2-(methylsulfonyl)butanamide], the EC-1 (MIC) in assay [1] stood at 0.125 µg/mL. For the same compound, the PA-7 (MIC) in assay [2] was 2 µg/mL.

In assay [1], `COc1ccc(-c2ccn(CCC(C)(C(=O)NO)S(C)(=O)=O)c(=O)c2)c(C)n1` (stereo not shown) [Example 200, N-hydroxy-4-(6-methoxy-2-methyl-2′-oxo-3,4′-bipyridin-1′(2′H)-yl)-2-methyl-2-(methylsulfonyl)butanamide] had an EC-1 (MIC) of 32 µg/mL. Further, the PA-7 (MIC) in assay [2] is 16 µg/mL.

On to `Cc1c(-c2ccn(CCC(C)(C(=O)NO)S(C)(=O)=O)c(=O)c2)cnn1-c1ccccc1` (stereo not shown) [Example 203, N-hydroxy-2-methyl-4-[4-(5-methyl-1-phenyl-1H-pyrazol-4-yl)-2-oxopyridin-1(2H)-yl]-2-(methylsulfonyl)butanamide], for which, in assay [1], the EC-1 (MIC) was found to be 64 µg/mL. In addition, the PA-7 (MIC) in assay [2] is > 64 µg/mL.

For `CC(CCn1ccc(-c2cc(O)ccc2Cl)cc1=O)(C(=O)NO)S(C)(=O)=O` (stereo not shown) [Example 204, 4-[4-(2-chloro-5-hydroxyphenyl)-2-oxopyridin-1(2H)-yl]-N-hydroxy-2-methyl-2-(methylsulfonyl)butanamide], in assay [1], the EC-1 (MIC) amounted to 64 µg/mL. Further, the PA-7 (MIC) in assay [2] is > 64 µg/mL.

In the case of `CCOc1ncccc1-c1ccn(CCC(C)(C(=O)NO)S(C)(=O)=O)c(=O)c1` (stereo not shown) [Example 205, 4-(2-ethoxy-2′-oxo-3,4′-bipyridin-1′(2′H)-yl)-N-hydroxy-2-methyl-2-(methylsulfonyl)butanamide], the EC-1 (MIC) in assay [1] was > 64 µg/mL. The PA-7 (MIC) in assay [2] is > 64 µg/mL.

For `COc1cccc(-c2ccn(CCC(C)(C(=O)NO)S(C)(=O)=O)c(=O)c2)c1` (stereo not shown) [Example 206, N-hydroxy-4-[4-(3-methoxyphenyl)-2-oxopyridin-1(2H)-yl]-2-methyl-2-(methylsulfonyl)butanamide], the EC-1 (MIC) in assay [1] was determined as 4 µg/mL. The compound also showed a PA-7 (MIC) in assay [2] of 4 µg/mL.
